US20240165097A1, “PHARMACEUTICAL COMPOSITION FOR THE TREATMENT OF ALZHEIMER'S DISEASE OR DEMENTIA” (Heptares Therapeutics Limited, priority 2021, published 2024)
Marks after values point to notes of the source that are not given here.

Test system: patients with mild-to-moderate AD
Assay: Example D: safety and tolerability, adjunctive to donepezil 10 mg per day, 4 weeks
Format: in vivo, human
Conditions: for Abdominal pain incidence / Accidental overdose incidence / Decreased lymphocyte count incidence / Decreased white blood cell count incidence / Diarrhoea incidence / Fatigue incidence / Headache incidence / Hyperhidrosis incidence / Lymphopenia incidence / Nausea incidence / Number of TEAEs / SAE incidence / TEAE Severity: Mild / TEAE Severity: Moderate / TEAE Severity: Severe / TEAE incidence / TEAE leading to discontinuation incidence / Treatment-related TEAE incidence / Urinary tract infection incidence / Viral upper respiratory tract infection incidence: randomised dose; for TEAE incidence during maintenance (Days 16-28) / TEAE incidence during titration (Days 1-15): Day 16 dose received
Experimental: The study was an outpatient study conducted across 18 centres in Poland, Czech Republic, Spain, and Slovakia (NCT03456349, registered at clinicaltrials.gov). Patients were assessed for eligibility during a 42-day screening period and randomised equally to either placebo or a HTL0018318 target dose of 5 mg, 15 mg, or 25 mg per day (FIG. 5A). HTL0018318 was titrated to the target dose during a 2-week titration period (FIG. 5B); investigators could maintain or reduce the dose to limit tolerability/safety issues throughout this period. The study was conducted in accordance with the principles of the Declaration of Helsinki, the International Council for Harmonisation good clinical practice guidelines, and according to all appropriate country regulatory requirements. Relevant independent ethics committees provided approval, and all patients (or their caregiver) provided written informed consent.
The primary endpoint of this study was to evaluate the safety and tolerability of HTL0018318. Safety and tolerability were assessed via the incidence and severity of treatment-emergent adverse events (TEAEs), and via evaluation during study visits of vital signs (including blood pressure [BP] and heart rate [HR]), electrocardiogram (ECG) measurements, physical and neurological examinations, laboratory haematology, clinical chemistry and urinalysis.
Safety was the primary endpoint and was assessed at all visits (screening, baseline, Day 1, Day 6±1, Day 11±1, Day 16±1, Day 28±1, and Day 35±2 [follow-up]) based on: spontaneously reported treatment-emergent adverse events (TEAEs); scheduled physical and neurological examinations; vital sign measurements (body temperature, heart rate [HR], systolic and diastolic BP [SBP and DBP]); 12-lead ECG recordings; and clinical laboratory safety panel. The C-SSRS was administered at baseline and on Day 28±1. TEAEs were coded using the Medical Dictionary for Regulatory Activities (MedDRA) Version 20.
All safety analyses used the safety set (SAF; randomised dose). The SAF (randomised dose) included all randomised patients who received at least one dose of the study drug; treatment group assignment was based on the initial randomised dose. All efficacy analyses were considered exploratory and used the full analysis set (FAS). The FAS included all randomised patients with at least one post-baseline efficacy measurement; treatment group assignment was based on the initial randomised dose. All summaries and analyses of PK data used the pharmacokinetic set (PKS). The PKS included all randomised patients with valid PK assessments; treatment group assignment was based on actual dose received.
BP and HR were measured in triplicate, both supine and standing, in the same arm throughout the study. Standing BP and HR were measured after 3 minutes of standing, and supine BP and HR after 5 minutes of lying down. Measurements were repeated if clinically significant or machine/equipment errors occurred. Out-of-range BP or HR measurements were repeated at the investigator's discretion. Any confirmed clinically significant vital sign measurements were recorded as AEs. If the following measurements were obtained, instructions for additional monitoring, or stopping dosing were to be followed: • SBP>170 mmHg; DBP>110 mmHg • SBP or DBP increase >30% from Day 1 pre-dose level.
Statistical evaluation was performed using Statistical analysis software (SAS®, SAS Institute, Cary, NC). Changes from baseline in vital signs were analysed using a mixed model for repeated measures with fixed effects for baseline, treatment, time-point and treatment by time-point interaction. The exploratory PD endpoints were analysed using an analysis of covariance with change from baseline as the dependent variable, and baseline and treatment as covariates. The least square means (LSM) for each dose (and difference from placebo) are presented with the 90% CI, P-value, and ES. […]

[1] = two highest doses (15 and 25 mg)

## CCOC(=O)N1C2CCC1CC(N1CCC3(CC1)CNC(=O)C3)C2 (stereo not shown) [HTL0018318, ethyl 3-(3-oxo-2,8-diazaspiro[4.5]dec-8-yl)-8-azabicyclo[3.2.1]octane-8-carboxylate]
5 mg (n = 15)
  Abdominal pain incidence: 1 (6.7) n (%)
  Accidental overdose incidence: 1 (6.7) n (%)
  Decreased lymphocyte count incidence: 0 n (%)
  Decreased white blood cell count incidence: 0 n (%)
  Diarrhoea incidence: 1 (6.7) n (%)
  Fatigue incidence: 0 n (%)
  Headache incidence: 1 (6.7) n (%)
  Hyperhidrosis incidence: 0 n (%)
  Lymphopenia incidence: 0 n (%)
  Nausea incidence: 1 (6.7) n (%)
  Number of TEAEs: 18 n
  SAE incidence: 0 n (%)
  TEAE Severity: Mild: 7 (46.7) n (%)
  TEAE Severity: Moderate: 1 (6.7) n (%)
  TEAE Severity: Severe: 1 (6.7) n (%)
  TEAE incidence: 8 (53.3) n (%)
  TEAE leading to discontinuation incidence: 1 (6.7)^d n (%)
  Treatment-related TEAE incidence: 4 (26.7) n (%)
  Urinary tract infection incidence: 1 (6.7) n (%)
  Viral upper respiratory tract infection incidence: 1 (6.7) n (%)
5 mg (n = 17)
  TEAE incidence during maintenance (Days 16-28): 4 (23.5) n (%)
  TEAE incidence during titration (Days 1-15): 8 (47.1) n (%)
10 mg (n = 1)
  TEAE incidence during maintenance (Days 16-28): 0 n (%)
  TEAE incidence during titration (Days 1-15): 1 (100) n (%)
15 mg (n = 14)
  Abdominal pain incidence: 0 n (%)
  Accidental overdose incidence: 1 (7.1) n (%)
  Decreased lymphocyte count incidence: 1 (7.1) n (%)
  Decreased white blood cell count incidence: 1 (7.1) n (%)
  Diarrhoea incidence: 0 n (%)
  Fatigue incidence: 0 n (%)
  Headache incidence: 3 (21.4) n (%)
  Hyperhidrosis incidence: 2 (14.3) n (%)
  Lymphopenia incidence: 1 (7.1) n (%)
  Nausea incidence: 1 (7.1) n (%)
  Number of TEAEs: 16 n
  SAE incidence: 0 n (%)
  TEAE Severity: Mild: 8 (57.1) n (%)
  TEAE Severity: Moderate: 1 (7.1) n (%)
  TEAE Severity: Severe: 0 n (%)
  TEAE incidence: 8 (57.1) n (%)
  TEAE leading to discontinuation incidence: 1 (7.1)^e n (%)
  Treatment-related TEAE incidence: 7 (50.0) n (%)
  Urinary tract infection incidence: 0 n (%)
  Viral upper respiratory tract infection incidence: 0 n (%)
15 mg (n = 16)
  TEAE incidence during maintenance (Days 16-28): 2 (12.5) n (%)
  TEAE incidence during titration (Days 1-15): 8 (50.0) n (%)
25 mg (n = 11)
  TEAE incidence during maintenance (Days 16-28): 2 (18.2) n (%)
  TEAE incidence during titration (Days 1-15): 6 (54.5) n (%)
25 mg (n = 16)
  Abdominal pain incidence: 0 n (%)
  Accidental overdose incidence: 0 n (%)
  Decreased lymphocyte count incidence: 1 (6.3) n (%)
  Decreased white blood cell count incidence: 1 (6.3) n (%)
  Diarrhoea incidence: 1 (6.3) n (%)
  Fatigue incidence: 2 (12.5) n (%)
  Headache incidence: 3 (18.8) n (%)
  Hyperhidrosis incidence: 0 n (%)
  Lymphopenia incidence: 1 (6.3) n (%)
  Nausea incidence: 0 n (%)
  Number of TEAEs: 26 n
  SAE incidence: 0 n (%)
  TEAE Severity: Mild: 9 (56.3) n (%)
  TEAE Severity: Moderate: 4 (25.0) n (%)
  TEAE Severity: Severe: 0 n (%)
  TEAE incidence: 11 (68.8) n (%)
  TEAE leading to discontinuation incidence: 0 n (%)
  Treatment-related TEAE incidence: 5 (31.3) n (%)
  Urinary tract infection incidence: 1 (6.3) n (%)
  Viral upper respiratory tract infection incidence: 1 (6.3) n (%)
5, 15, 25 mg
  serious TEAEs or deaths: no serious TEAEs or deaths
5-25 mg adjunctive to donepezil
  tolerability: generally well tolerated
Across doses
  orthostatic BP or HR: no significant changes
  physical or neurological examination findings, laboratory abnormalities, risk of suicide: no clinically significant physical or neurological examination findings, or laboratory abnormalities
All doses, at Tmax, Days 1, 6, 11
  maximum mean elevations in SBP and DBP above placebo: 5-10 mmHg
One on 5 mg, one on 15 mg
  patients who discontinued treatment due to TEAEs: Two
[1]
  incidences of cholinergic TEAEs (abdominal pain, diarrhoea, fatigue, nausea): 0-13%
  maximum incidences of cholinergic TEAEs: 7-13%
